This is an account of results in BindingDB's records for doi:10.1021/jm00394a026 (Wyeth Laboratories, 1987).

The assay has as its target Arachidonate 5-lipoxygenase (Rattus norvegicus). Briefly: Ability to inhibit 5-lipoxygenase in rat.

In the case of `CN1C[C@@H](c2cccc(OCc3ccc4ccccc4n3)c2)OC1=O`, half-maximal inhibition (IC50) required 19.6 µM.

Broadly, the IC50 is the concentration that inhibits the measured activity by half. Lower therefore signals higher potency.
